# In patent US20050089573A1, “Oral pharmaceutical formulation containing ibandronate” (F. HOFFMANN-LA ROCHE, priority 1996, published 2005):
# Assay: clinical studies using ibandronate in rapidly releasing coated oral administration forms (tolerability)
# Format: in vivo, patients
# Excerpt: The film dissolving upon contact with digestive juice is preferably a coating which dissolves pH-independently. The adjuvant coating may be coated using methods common in pharmaceutical technology. […] This is particularly advantageous since the administration forms of the invention are also well-tolerated by patients lying in bed.
# [1] = administration forms coated with a film which quickly releases the active substance
smiles,measurement,setting,value
"CCCCCN(C)CCC(O)(P(=O)(O)O)P(=O)(O)O [ibandronate, 1-hydroxy-3-(N-methyl-N-pentyl)aminopropyl-1,1-diphosphonic acid]",irritations in the oesophagus when swallowing the tablets,[1],no irritations in the oesophagus
same,oesophagitis,[1],does not occur
same,"cases of nausea, vomiting, pain or diarrhoea","patients treated with rapidly releasing administration forms, compared to what is otherwise observed when administering aminobisphosphonates",significantly less cases
same,side effects observed in clinical studies,"peroral forms coated with film that dissolves pH-independently, even at high dosages",no significant side effects
